This note sets out measurements from patent publication US20230293630A1, “Coronavirus T Cell Epitopes and Uses Thereof” (priority 2020, published 2023).

Like-named read-outs stand apart in the source and are kept apart here.

The assay deals with SARS-CoV-2-specific CD4+ T cells (OX40+CD137+) in PBMC. Type of assay: cell-based, human.
Setting [1] is: CD4+ T cell epitopes identified by AIM assay, share of donors responding.
Setting [2] is: CD4+ T cell epitopes identified by AIM assay, sum of response per responding donor.
Where [3] appears, read: CD4+ T cell epitopes identified by AIM assay, total response.
Where [4] appears, read: CD4+ T cell epitopes identified by AIM assay, percent of tested donors responding.
[5] abbreviates: CD4+ T cell epitopes identified by AIM assay, total response summed over donors.

Regarding IGNYTVSCLPFTINC, the “Frequency of response (%)” value under setting [1] came to 45%. In addition, under setting [2], the “Magnitude by # of responding donors” value is 245. The Sum of response under setting [3] came out at 1223.
With AIKLDDKDPNFKDQV, the “Frequency of response (%)” value under setting [1] is reported as 8%. Further, the “Magnitude by # of responding donors” value under setting [2] is given as 585. Under setting [3], this sequence had a Sum of response of 585.
For TPSFKKGAKLLHKPI, under setting [1], the “Frequency of response (%)” value is 8%. The “Magnitude by # of responding donors” value under setting [2] is reported as 103. The sequence further displayed a Sum of response under setting [3] of 103.
In the case of ARDLICAQKFNGLTV, under setting [1], the “Frequency of response (%)” value turned out to be 8%. For the same sequence, the “Magnitude by # of responding donors” value under setting [2] was 232. Moreover, the Sum of response under setting [3] came out at 232.
FGDQELIRQGTDYKH: the “Frequency of response (%)” value under setting [1] was 8%. In addition, the “Magnitude by # of responding donors” value under setting [2] is listed as 281. Under setting [3], this sequence yielded a Sum of response of 281.
As for LTYTGAIKLDDKDPN, the “Frequency of response (%)” value under setting [1] is 17%. In addition, under setting [2], the “Magnitude by # of responding donors” value amounted to 742. Moreover, the Sum of response under setting [3] was 1484.
In the case of SDVLYQPPQTSITSA, under setting [1], the “Frequency of response (%)” value is given as 8%. The “Magnitude by # of responding donors” value under setting [2] is 394. Further, the Sum of response under setting [3] came to 394.
TQLNRALTGIAVEQD: the “Frequency of response (%)” value under setting [4] turned out to be 8%. Moreover, the “Magnitude by # of responding donors” value under setting [2] was found to be 260. The same sequence displayed a Sum of response under setting [5] of 260.
As to DVFHLYLQYIRKLHD, the “Frequency of response (%)” value under setting [1] is 7%. Also, the “Magnitude by # of responding donors” value under setting [2] was 247. Moreover, the Sum of response under setting [3] was found to be 247.
Consider GKGQQQQGQTVTKKS, for which the “Frequency of response (%)” value under setting [1] is reported as 7%. For the same sequence, the “Magnitude by # of responding donors” value under setting [2] stood at 318. The Sum of response under setting [3] was 318.
In the case of FYSKWYIRVGARKSA [SEQ ID NO 255], the “Frequency of response (%)” value was 55%, the “Magnitude by # of responding donors” value amounted to 468 and the Sum of response was 2805.
As for VTLADAGFIKQYGDC, under setting [1], the “Frequency of response (%)” value is 17%. In addition, the “Magnitude by # of responding donors” value under setting [2] stood at 119. The sequence also showed a Sum of response under setting [3] of 237.
The corresponding values for SFNPETNILLNVPLH are 8%, 123 and 123.
Turning to HCANFNVLFSTVFPP, under setting [1], the “Frequency of response (%)” value is 7%. The “Magnitude by # of responding donors” value under setting [2] turned out to be 211. Besides, under setting [3], the Sum of response is reported as 211.
Turning to NRNRFLYIIKLIFLW, the “Frequency of response (%)” value under setting [1] is given as 13%. Further, the “Magnitude by # of responding donors” value under setting [2] is reported as 210. For the same sequence, under setting [3], the Sum of response is recorded as 420.
The corresponding values for PNFSKLINIIIWFLL are 8%, 3802 and 3802.
For SASFSTFKCYGVSPT the same measures were 8%, 294 and 294.
For the sequence NVPLHGTILTRPLLE, under setting [1], the “Frequency of response (%)” value is 8%. The “Magnitude by # of responding donors” value under setting [2] worked out at 263. This sequence also gave a Sum of response under setting [3] of 263.
With MKDLSPRWYFYYLGT, the “Frequency of response (%)” value under setting [1] is listed as 14%. Besides, the “Magnitude by # of responding donors” value under setting [2] turned out to be 2536. The sequence also gave a Sum of response under setting [3] of 5072.
Consider QSINFVRIIMRLWLC [SEQ ID NO 252], for which the “Frequency of response (%)” value under setting [4] is 21%. Also, under setting [2], the “Magnitude by # of responding donors” value turned out to be 168. The same sequence showed a Sum of response under setting [5] of 505.
With LYLYALVYFLQSINF, the “Frequency of response (%)” value under setting [1] is 21%. Under setting [2], the “Magnitude by # of responding donors” value is on record as 124. The same sequence registered a Sum of response under setting [3] of 371.
For the sequence FLGIITTVAAFHQEC [SEQ ID NO 254], the “Frequency of response (%)” value under setting [4] is on record as 9%. Moreover, the “Magnitude by # of responding donors” value under setting [2] stood at 185. This sequence yielded a Sum of response under setting [5] of 185.
In the case of TITSGWTFGAGAALQ, under setting [1], the “Frequency of response (%)” value was 9%. Besides, the “Magnitude by # of responding donors” value under setting [2] came to 164. Moreover, the Sum of response under setting [3] turned out to be 164.
For ILLNKHIDAYKTFPP, the “Frequency of response (%)” value under setting [1] was determined as 42%. The “Magnitude by # of responding donors” value under setting [2] is recorded as 483. Under setting [3], the Sum of response is 2416.
With IQWMVMFTPLVPFWI, the “Frequency of response (%)” value under setting [1] was 8%. The “Magnitude by # of responding donors” value under setting [2] was determined as 603. Moreover, under setting [3], the Sum of response stood at 603.
With KVTFFPDLNGDVVAI [SEQ ID NO 257], the “Frequency of response (%)” value under setting [4] is 15%. Besides, the “Magnitude by # of responding donors” value under setting [2] came to 147. The sequence further came in with a Sum of response under setting [5] of 293.
With YADSFVIRGDEVRQI, under setting [1], the “Frequency of response (%)” value came out at 8%. The “Magnitude by # of responding donors” value under setting [2] is 160. Also, the Sum of response under setting [3] was determined as 160.
Turning to LTQHGKEDLKFPRGQ, the “Frequency of response (%)” value under setting [1] came to 8%. In addition, the “Magnitude by # of responding donors” value under setting [2] was determined as 127. The same sequence came in with a Sum of response under setting [3] of 127.
Turning to SNFRVQPTESIVRFP, the “Frequency of response (%)” value under setting [4] is 9%. Also, the “Magnitude by # of responding donors” value under setting [2] was 243. Moreover, the Sum of response under setting [5] is on record as 243.
On to AVMSLKEGQINDMIL, for which the “Frequency of response (%)” value under setting [1] came to 33%. The “Magnitude by # of responding donors” value under setting [2] was found to be 104. Moreover, the Sum of response under setting [3] was 104.
Regarding EHVTFFIYNKIVDEP, the “Frequency of response (%)” value under setting [1] came to 14%. Further, under setting [2], the “Magnitude by # of responding donors” value is on record as 139. Besides, the Sum of response under setting [3] was 277.
As to AGFIKQYGDCLGDIA, the “Frequency of response (%)” value under setting [1] was 25%. Besides, the “Magnitude by # of responding donors” value under setting [2] is listed as 817. Under setting [3], the Sum of response was 2450.
Consider IGINITRFQTLLALH, for which the “Frequency of response (%)” value under setting [4] was 9%. Also, under setting [2], the “Magnitude by # of responding donors” value is listed as 177. The sequence further yielded a Sum of response under setting [5] of 177.
In the case of KPSKRSFIEDLLFNK, the “Frequency of response (%)” value under setting [4] amounted to 17%. Besides, the “Magnitude by # of responding donors” value under setting [2] came to 622. This sequence gave a Sum of response under setting [5] of 1243.
As for LQPELDSFKEELDKY, the “Frequency of response (%)” value under setting [1] was 7%. The “Magnitude by # of responding donors” value under setting [2] is listed as 173. In addition, under setting [3], the Sum of response worked out at 173.
Consider SGHNLAKHCLHVVGP, for which the “Frequency of response (%)” value under setting [1] was determined as 8%. For the same sequence, under setting [2], the “Magnitude by # of responding donors” value came to 148. Moreover, the Sum of response under setting [3] is 148.
For the sequence APHGVVFLHVTYVPA, under setting [4], the “Frequency of response (%)” value was 7%. In addition, the “Magnitude by # of responding donors” value under setting [2] was 293. Also, under setting [5], the Sum of response stood at 293.
Consider TNSRIKASMPTTIAK, for which the “Frequency of response (%)” value under setting [1] is on record as 8%. Also, the “Magnitude by # of responding donors” value under setting [2] was 360. Further, the Sum of response under setting [3] came to 360.
For YCIDGALLTKSSEYK, the “Frequency of response (%)” value under setting [1] turned out to be 7%. Further, under setting [2], the “Magnitude by # of responding donors” value was 119. The sequence also showed a Sum of response under setting [3] of 119.
In the case of RPLLESELVIGAVIL, the “Frequency of response (%)” value under setting [1] is reported as 8%. In addition, the “Magnitude by # of responding donors” value under setting [2] came to 183. Under setting [3], this sequence showed a Sum of response of 183.
ELDKYFKNHTSPDVD: under setting [4], the “Frequency of response (%)” value was 7%. Besides, under setting [2], the “Magnitude by # of responding donors” value is recorded as 361. Moreover, the Sum of response under setting [5] turned out to be 361.
As for KNPLLYDANYFLCWH [SEQ ID NO 253], the “Frequency of response (%)” value under setting [4] is 7%. Besides, under setting [2], the “Magnitude by # of responding donors” value came out at 112. This sequence registered a Sum of response under setting [5] of 112.
With RAMPNMLRIMASLVL, the “Frequency of response (%)” value under setting [1] was 7%. Under setting [2], the “Magnitude by # of responding donors” value is 144. For the same sequence, the Sum of response under setting [3] was found to be 144.
